Where no end group is shown, it is not given here.

These results are taken from patent US5824646A, “Intravaginal delivery of biologically active polypeptides” (Teikoku Seiyaku Co., Ltd., priority 1997, dated 1998).

In data set [1] the test system is oophorectomized female Wister rats. The data set is described as follows: Serum calcium decrease after intravaginal porcine calcitonin in young oophorectomized rats. The class given is in vivo, rat. The procedure:
Oophorectomy was performed on 5- to 6-week old female Wister rats which, after about one month, were used in this experiment as an animal model for postmenopausal women.
To 20 I.U. porcine calcitonin, 3 mg of bovine serum albumin (BSA) was added. Sodium lauryl sulfate (hereinafter called "SDS") was then added to the above-prepared mixture to make 0.05, 0.1, 0.5 and 1 w/v% concentrations, respectively. The mixtures of different SDS concentrations were then each diluted with 0.1M acetic acid/sodium acetate buffer solution (pH 5.0) to make 1 ml calcitonin solutions. Rats were anesthetized with ether, and a required amount of blood was taken from the right external jugular vein before the administration of calcitonin. After a small cotton ball was inserted into the vagina of the rat, each 50 microliters of calcitonin solution of different SDS concentrations was administered. Blood was again extracted 2 hours after calcitonin administration.
After the separation of blood serum, serum calcium concentration was determined with a Calcium C test kit, a registered trademark at Wako Chemical in Japan. The results are depicted in FIG. 1.
Oophorectomized menopausal model rats were used in this experiment, similarly to Example 1.
Bovine serum albumin was added to each 1 ml of 2, 10, 20, 40 and 80 I.U./ml of porcine calcitonin dissolved in acetic acid buffer solution (pH 5.0) to make 3 mg/ml. Then, SDS was added to each solution to make 1 w/v%. Similarly to Example 1, these preparations containing different concentrations of calcitonin were administered intravaginally to the rats, and the serum calcium concentration was determined. […] The largest ratio of decreased serum calcium against control noted in this experiment was 30%.

For the next data set, the system named is intravaginal protease. The data set is described as follows: Protease activity of vaginal wash with BAEE as substrate after intravaginal preparation. In kind it is biochemical, rat. The procedure:
The calcitonin pharmaceutical preparation was prepared according to Examples 1 and 2. The preparation was inserted into the vagina with a small cotton ball. Two hours after the insertion, the inserted cotton ball was removed from the vagina. The vagina was then washed with a fixed quantity of phosphate buffered saline solution, the washed solution was combined with the cotton ball, and the protease activity was determined with BAEE as substrate.

In data set [2] the test system is oophorectomized rats. In words: Serum calcitonin (RIA) and serum calcium after intravaginal human calcitonin with SDS. As to conditions: 10-200 micrograms HCT per kg, 0.3% BSA, 1 w/v% SDS, pH 5, 2 hours. The class given is in vivo, rat. How it is done: Similarly to Examples 1 and 2, oophorectomized rats were used in this experiment. 1000 micrograms of Human calcitonin (HCT) was dissolved in 1 ml of 0.1M acetate buffer (pH 5) containing 0.3 w/v% bovine serum albumin and 1 w/v% SDS. 10, 25, 50, 100 and 200 micrograms of HCT (protein weight) in solution per 1 kg body weight of rats were taken out of the HCT solution mentioned above, and each portion of the HCT solution was diluted up to 50 microliters with 0.1M acetate buffer (pH 5) containing 0.3% (w/v%) bovine serum albumin and 1 w/v% SDS. Each 50 microliters of HCT solution with a different amount of HCT was administered into the vagina with a small cotton ball. Two hours after drug administration, blood was extracted from the right external jugular vein of the anesthetized rat, and serum calcium was determined with a Calcium C test kit. Serum calcitonin was also determined by a radioimmunoassay method (RIA method), using human calcitonin antibody.

Data set [3] relates to oophorectomized rats. The data set is described as follows: Serum H-CT (RIA) and serum calcium after intravaginal H-CT with sodium caprate and Nonidet P-40. As to conditions: 250 micrograms H-CT, 0.3% BSA, 1% sodium caprate, 2% Nonidet P-40, pH 5, 1, 2 and 4 hours. In kind it is in vivo, rat. The procedure:
Oophorectomized rats were used in this experiment in a similar manner as Example 3. 1 mg of H--CT was dissolved in 400 microliters of 0.1M acetate buffer (pH 5) containing 0.3 w/v% bovine serum albumin (BSA) and 1% sodium caprate and 2% Nonidet P-40. 100 microliters of H--CT solution (250 micrograms H--CT) was administered into the vagina of the rat with a small cotton ball. Blood samples were taken from the right external jugular vein of the anesthetized rats at 1, 2 and 4 hours after administration. Serum calcium was determined with a Calcium C test kit. Serum H--CT was also determined by the RIA method using human calcitonin antibody.

The test system of data set [4] is oophorectomized rats. The data set is described as follows: Serum glucose after intravaginal insulin preparation. The class given is in vivo, rat. As to conditions: 5 U. insulin, 1 w/v% SDS. How it is done:
The oophorectomized rats described in Example 1 were used in this experiment. The insulin pharmaceutical preparation prepared according to this invention was administered intravaginally to the rats, and the change in plasma glucose was investigated. Bovine serum albumin and SDS were added to a solution of 100 U./ml insulin in 0.1M acetic acid/sodium acetate buffer solution to make a final concentration of 3 mg/ml and 1 w/v%, respectively. The pH was adjusted to 5.0 with 0.1M acetic acid/sodium acetate buffer solution. The 5 U. insulin preparation was administered into the vagina of the rat with a small cotton ball. Serum glucose at 2 hours after drug administration was compared with that before drug administration. It was noted that at 2 hours after drug administration, the blood sugar level decreased about 30% in comparison with that prior to drug administration.

For data set [5], the system named is aged, oophorectomized rats. The data set is described as follows: Serum calcium decrease by porcine calcitonin in aged oophorectomized rats. The following applies: intramuscular injection (femoral bicipital muscle), different concentrations. In kind it is in vivo, rat. How it is done: The ovaries of 30-week-old female Wister rats were excised about one month before use in the experiment.
Prior to this experiment, a separate experiment was performed to investigate the susceptibility of aged, oophorectomized rats to porcine calcitonin. Different concentrations of calcitonin were injected into rats in the femoral bicipital muscle, and the decreasing serum calcium was determined.
Following the procedure of Examples 1 and 2, a dose of 4 I.U. calcitonin per rat was prepared and administered intravaginally by inserting a small cotton ball in the vagina. Following the procedure of Examples 1 and 2, blood was extracted and the blood calcium concentration was determined.

Data set [6] deals with 5-week-old Wister male rats. The data set is described as follows: Effect of SDS on calcitonin stability: bioassay of stored preparations by intramuscular injection. The class given is in vivo, rat. The procedure:
A porcine calcitonin (P--CT) pharmaceutical preparation according to the invention was prepared by the method described in Examples 1 and 2, and the stability of porcine calcitonin in the resultant preparation was investigated. Thus, 1 ml of 3 mg/ml bovine serum albumin (BSA) solution was added to 40 I.U. of porcine calcitonin, and the mixture was divided into two equal portions. SDS was added to one of the portions to make a final concentration of 0.1 w/v%; and no SDS was added to the other portion. The pH of both of the preparations was then adjusted to pH 5 with acetic acid/sodium acetate buffer (0.1M) solution. These two preparations were then stored at 37° C. for 8 days. The biological activity of calcitonin of the 8-day stored preparations was then investigated using 5-week-old Wister male rats. A dosage of 0.12 I.U./kg calcitonin of these two preparations was administered to the rats by injection into the femoral muscle. One hour after drug administration, blood was extracted from the right external jugular vein, and the blood calcium content was determined.

Data set [7] relates to 5-week-old male Wister rats. In words: Effect of pH and human serum albumin on calcitonin stability: bioassay by intramuscular injection. In kind it is in vivo, rat. The following applies: 0.03 I.U./ml, 4° C. for one week, bioassay 0.06 I.U./kg i.m. The procedure: Using blood calcium decreasing ratio as an indication, the effect of pH and human serum albumin (HSA) on the stability of calcitonin in the preparation of this invention was investigated using 5-week-old male Wister rats.
Purified porcine calcitonin (P--CT) was dissolved in 0.1M acetic acid buffer solutions of pH 3.0 and pH 5.0 and 0.1M phosphoric acid buffer solution of pH 6.8 so that each of the solutions contained 0.03 I.U./ml of porcine calcitonin. Each calcitonin solution (pH 3.0, 5.0, 6.8) was divided into two parts. In each case, to one portion of the calcitonin solutions 3 mg/ml of HSA was added, while no treatment was performed on the other portion. The resultant preparations were stored at 4° C. for one week. These calcitonin preparations were then each injected into the femoral bicipital muscle of the rats at a dosage of 0.06 I.U. per kg body weight. An appropriate quantity of blood was extracted from the right external jugular vein, and blood […] was determined with a Calcium C-Test kit.

The test system of data set [8] is oophorectomized rats. In words: Serum calcium and serum calcitonin after intravaginal S-CT suppository. In kind it is in vivo, rat. As to conditions: PEG suppository, 250 micrograms S-CT, BSA, Nonidet P-40, sodium caprate, 1, 2 and 4 hrs. How it is done:
The model animals and experimental procedures are similar to that described in Example 10. The suppositories used in this Example were prepared as follows. 1 mg of S--CT was dissolved in 100 microliters of 0.1M acetate buffer solution (pH 5) containing 1.5 mg of BSA (bovine serum albumin), 10 mg of Nonidet P-40, and 5 mg of sodium caprate. 383 mg of suppository base composed of PEG 4000 (33%), PEG 6000 (47%) and distilled water (20%) was warmed to 45° to 50° C., then mixed well with the S--CT solution using a Vortex mixer for 1 min, then transferred into a brass suppository mold and cooled to approximately 4° C. for 2 hrs. 125 mg of S--CT suppository contained 250 micrograms of S--CT. 250 micrograms of a S--CT suppository was administered into the rat vagina. 1, 2, and 4 hrs after administration, blood samples were taken, and the serum calcium concentration and the serum calcitonin were determined by the same method used in Example 10.

Setting [9] is: 3 mg/ml BSA, pH 5.0, after 2 hours.

Regarding `CCCCCCCCCCCCOS(=O)(=O)[O-].[Na+]` [SDS, Sodium lauryl sulfate], the “ratio of decreased serum calcium concentration against the control” value in [1] (porcine calcitonin 20 I.U./ml, 3 mg BSA, SDS 0.05, 0.1, 0.5 and 1 w/v%, pH 5.0, 50 microliters intravaginal, 2 hours, control without SDS) is on record as “increased correspondingly with increasing concentration of SDS”. Besides, the “decrease of protease activity in comparison with the control group” value in the data set on intravaginal protease (1% SDS added group versus control without SDS) is listed as “about 30%”. Besides, in the data set with intravaginal protease (1% SDS in calcitonin preparation, vaginal wash 2 hours after insertion), the “protease activity relative to control (control = 100.0)” value stood at 29.2. Also, the protease activity with intravaginal protease (1% SDS in calcitonin preparation, vaginal wash plus cotton ball 2 hours after insertion) was 6.84 BAEE units/mg protein.

For Human calcitonin [HCT], in the data set with oophorectomized rats [2], the “serum calcitonin (RIA)” value is reported as “increased proportionally to the increase in the dosage of calcitonin administered into the vagina” and the serum calcium entry is given as “decreased correspondingly with increase in calcitonin dosage”. In the data set with oophorectomized rats [3], the “serum calcitonin (RIA)” value is reported as “increased proportionally to the increase in the dosage of calcitonin administered into the vagina” and the serum calcium result was “decreased correspondingly with an increase in calcitonin dosage”.

With insulin, in the data set with oophorectomized rats [4] (setting [9]), the “Glucose Concentration in Serum” value amounted to 53 ± 24.6 mg/dL and the “Glucose Concentration in Serum relative to prior to administration (100)” value was 70.7%. In addition, the “decrease of blood sugar level in comparison with that prior to drug administration” value in the data set with oophorectomized rats [4] (BSA, 2 hours) is given as “about 30%”.

Regarding “porcine calcitonin (CSNLSTCVLSAYWRNLNNFHRFSGMGFGPETP; ends and bridges not checked; cysteine pairing not given here; UniProt P01259 1-32, looked up) [P-CT]”, in data set [1] (2, 10, 20, 40 and 80 I.U./ml porcine calcitonin, 3 mg/ml BSA, 1 w/v% SDS, pH 5.0, intravaginal), the “ratio of decreased serum calcium against control (dose response)” value was “exhibited an increase proportional to the increase of calcitonin concentration”. For the same compound, the “largest ratio of decreased serum calcium against control” value in data set [1] (2-80 I.U./ml porcine calcitonin, 3 mg/ml BSA, 1 w/v% SDS, intravaginal, young oophorectomized rats) is given as 30%; in data set [5], “about 10%”. The “Ratio of Decreased Calcium Concentration Against Control, 0 day” value in [6] (P-CT (40 I.U.)/0.3% BSA/ml, pH 5.0, freshly made, 0.12 I.U./kg i.m., 1 hour) is listed as 20.7. The “Ratio of Decreased Calcium Concentration Against Control, 8 days (at 37° C.)” value in data set [6] (P-CT (40 I.U.)/0.3% BSA/ml, pH 5.0, stored 8 days at 37° C., 0.12 I.U./kg i.m., 1 hour) is given as 11.1. Further, in [6] (stored at 37° C. for 8 days, pH 5, compared with freshly made preparation), the “biological activity after the 8-day storage period” value is reported as “decreased to about half that of the freshly made preparation”. Further, the “stability of calcitonin in pH 6.8 solution with HSA” value in data set [7] (3 mg/ml HSA added) is “became as stable as calcitonin in a solution of pH 3.0 or 5.0”. Moreover, the “stability of calcitonin in buffer solutions without HSA, pH 3.0 and 5.0” value in [7] (0.1M acetic acid buffer) was “stable”. In addition, the “stability of calcitonin in buffer solution without HSA, pH 6.8” value in data set [7] (0.1M phosphoric acid buffer) is listed as “unstable”.

In the case of salmon calcitonin [S--CT], the “absorption of S-CT and its biological activity” value in the data set with oophorectomized rats [8] was “exhibit a dose-dependent response”.
